From patent US20070274947A1, “Antisense Oligonucleotides Directed to Ribonucleotide Reductase R1 and Uses Thereof in the Treatment of Cancer” (priority 2003, published 2007)
“Also recorded” adds a separate entry of the source.

What was measured:
[1] = rat
Protocol: Ten rats/sex/group were administered SEQ ID NO:1 at doses of 0 (control), 2, 10, or 50 mg/kg/day. Animals in the control group received the vehicle article, PBS. […] An additional 5 rats/group were included in the control and high dose group as recovery animals, and were allowed a 14-day observation period following the treatment period. Parameters assessed during the study include mortality, clinical signs, body weights, food consumption, opthalmoscopic examination, clinical pathology assessment (hematology, coagulation, clinical chemistry, and urinalysis). Terminal procedures included a complete necropsy of each animal, and histopathologic evaluation of selected tissues for animals in the control and high dose groups. For toxicokinetic evaluations, an additional 8 rats/sex were included in the high dose groups. Serial and terminal blood samples were withdrawn from satellite animals at selected time points during infusion and after the end of infusion.

[2] = 14-day continuous intravenous infusion toxicity study in the rat; format: in vivo, Sprague Dawley rats
R1 mRNA [3] = experiment: Northern blot of R1 mRNA in MDA-MB-231 cells; format: cell-based, human; conditions: 0.2 μM, four hours with Lipofectin, 16 hours recovery
Protocol: Total RNA was isolated using TRIzol reagent (GIBCO BRL) after cells were treated with 0.2 μM SEQ ID NO:1 for four hours in the presence of cationic lipid (Lipofectin reagent, GIBCO BRL), washed with PBS, and incubated for 16 hours to recover in normal medium containing 10% FBS. Northern blot analysis was performed as previously described (Hurta and Wright, 1995). RNA was subjected to electrophoresis through 1% formaldehyde agarose gels followed by transfer to nylon membranes. Blots were hybridized in the presence of a R1 fragment (McClarty et al, 1987). Glyceraldehyde-3-phosphate dehydrogenase (GAPDH) mRNA levels were simultaneously probed for RNA loading controls.

R1 mRNA [4] = experiment: Northern blot of R1 mRNA in A2058 human melanoma cells; format: cell-based; conditions: 0.2 μM, 4 hr with Lipofectin
Protocol: A2058 human melanoma cells, grown to subconfluency (70-80%), were treated with 0.2 μM of phosphorothioate antisense ODNs for 4 hr in the presence of cationic lipid (Lipofectin reagent, final concentration, 5 μg/ml, GIBCO BRL) and Opti-MEM (GIBCO BRL). Cells were washed once with PBS and incubated for 16 hr in α-MEM medium (GIBCO BRL) containing 10% FBS. Total RNA was prepared in TRIzol reagent (GIBCO BRL) and northern blot analysis was performed as previously described (Hurta and Wright, J. Cell. Biochem. 57: 543-56, 1995) with some modifications. RNA prepared from cells treated with lipofectin alone (Control), SEQ ID NO:1 and scrambled control analogue (SEQ ID NO:1 Scr) were subjected to electrophoresis through 1% formaldehyde agarose gels followed by transfer to nylon membrane. The blots were hybridized with ^32P-labeled probes that detect R1 mRNA, 28S rRNA, 18S rRNA, thioredoxin mRNA, […], GAPDH mRNA, thioredoxin reductase mRNA, ribosomal protein S9 mRNA, RNase MRP RNA, RNase P RNA and R2 mRNA.

[5] = tested on: C8161 human melanoma cells; experiment: Experimental metastasis of C8161 cells treated ex vivo (lung nodules, CD-1 athymic nude mice); format: in vivo; conditions: cells treated 4 hr with 0.2 μM plus Lipofectin before tail vein injection; 4 weeks; vs lipofectin alone
Protocol: A. Experimental metastasis of C8161 human melanoma cells treated with SEQ ID NO:1 was estimated as follows. Aliquots of C8161 cell suspension were seeded into 100 mm tissue culture dishes at a density of 2×10^6 and incubated overnight at 37° C. in α-MEM medium supplemented with 10% FBS. Following a wash with 10 ml of PBS, cells were treated for 4 hr with 0.2 μM of SEQ ID NO:1 in the presence of a cationic lipid (Lipofectin reagent, final concentration, 10 μg/ml, Gibco BRL) or with lipofectin alone (CONTROL) as a control. SEQ ID NO:1 was removed by washing the cells once with PBS. Cells were then collected by trypsinization and centrifugation. Approximately 1×10^5 cells suspended in 0.2 ml of PBS were injected into the tail veins of 6-8 week-old CD-1 athymic female nude mice. Estimates of the number of lung tumors were made 4 weeks later by counting metastatic foci formed on the excised lung surface, see FIG. 12A. Bars represent mean number of tumor nodules in lungs obtained from 7-9 animals per experimental group.

[6] = tested on: human Burkitt's lymphoma (Raji) cells; experiment: Survival of SCID mice bearing human Burkitt's lymphoma (Raji); format: in vivo
Protocol: In vivo studies were conducted to assess the therapeutic potential of SEQ ID NO:1 in the treatment of lymphoma. Viable human Burkitt's lymphoma (Raji) cells (5×10^6) collected from subconfluent logarithmically growing cultures were injected i.v. via the tail vein of each animal and disease was allowed to establish for 2 days. SEQ ID NO:1 in normal saline was administered by tail vein injections every second day at a dose of 10 mg/kg. Control animals received saline alone, without oligonucleotide. Treatment with SEQ ID NO:1 was stopped at day 42. The mice in both groups (n−10) were sacrificed at, day 73. Antitumor effects of SEQ ID NO:1 treatment were assessed by the examination of survival of mice (FIG. 18A). All mice died as a consequence of tumor progression within 23 days when left untreated. All SEQ ID NO:1 treated animals, on the other hand, survived beyond day 73 except one mouse which died at day 35. In an independent experiment, mice survived 140 days, even when treatment was stopped at day 70 (FIG. 18B). This experiment also included treatment with a control oligonucleotide, SEQ ID NO:1-SCR (scrambled version of SEQ ID NO:1). The saline and control ODN mice all died from disease progression by day 27. At day 40, the SEQ ID NO:1-treated mice continued treatment every three days until stopping the treatment at day 59. All mice survived to the end of the experimental period.

[7] = Repeat dose 21-day toxicity study in monkeys (Part 2); conditions: monkey; 21-day infusion, 50 mg/kg/day
[8] = Toxicokinetics in repeat dose (14-day and 21-day) continuous infusion studies in monkeys; conditions: monkey

For “5′-CTCTAGCGTCTTAAAGCCGA-3′ (CTCTAGCGTCTTAAAGCCGA; chemistry not given here) [SEQ ID NO:1]”, the “sex difference in plasma concentrations during infusion” value [1] was “no apparent differences in the levels between males and females”, the “mean Cmax” value ([1]; in vivo) was 40.4 µg/mL and the “median time at which Cmax occurred” value ([1]; in vivo) was 96 h. The “time to steady state of continuous infusion” value ([1]; 50 (40) mg/kg/day continuous infusion) was “approximately 24 h”, the “elimination t1/2” value ([1]; after 14-day continuous infusion, high dose) was 8.6 h and the “steady state level (Css) in plasma” value ([1]; continuous i.v. infusion 50 mg/kg/day (reduced to 40 mg/kg/day), 14 days) was 34.8 µg/mL. For the same substance, the “sex effect on adverse effects” value [2] was “more pronounced in males than females”, the “treatment-related effects in the high dose group” value ([2]; 50 mg/kg/day (reduced to 40 mg/kg/day), 14-day infusion) was “severe adverse clinical signs and mortality; also recorded: high morbidity and mortality, reduced body weights and reduced food consumption” and the clinical pathology results ([2]; 2, 10, 50 mg/kg/day, 14 days) was “dose-dependent anemia, thrombocytopenia, coagulopathic selectivity for APTT, and liver and kidney toxicity in both sexes”. For the same substance, the pathological findings ([2]; 2, 10, 50 mg/kg/day, 14 days) was “major treatment-related changes in numerous tissues and organs of the high dose animals, in most tissues and organs of the mid dose animals; and sporadically in the evaluated tissues and organs of the low dose animals”, the toxicity ([2]; continuously for 14 days at 10 mg/kg/day (59 mg/m^2/day)) was “Severe toxicity” and the “R1 mRNA level” value (R1 mRNA [3]) was “specifically decreases R1 mRNA; also recorded: significant decrease; also recorded: decreased R1 mRNA levels”. For the same substance, the “R1 mRNA expression” value (R1 mRNA [4]) was “significant decrease; also recorded: significantly decrease expression of R1mRNA”, the “number of lung tumor nodules” value [5] was “significantly reduced the formation of lung colonies” and the survival of mice ([6]; FIG. 18A, 10 mg/kg i.v. every second day, stopped at day 42, one mouse died at day 35, untreated died within 23 days) was over 73 days. For the same substance, the survival of mice ([6]; independent experiment FIG. 18B, saline mice died by day 27) was at least 140 days, the mortality [7] was “one high dose animal was sacrificed on Day 19 for ethical reasons” and the “AUC estimates versus duration and dose” value ([8]; Part 1 and Part 2 Recovery animals) was “proportional with the duration of infusion and the administered dose level”. The “sex differences in toxicokinetic profile” value ([8]; Parts 1 and 2) was “no apparent sex-differences”.
